# Reference: PubChem BioAssay (NCI)
#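 Exposure lasted 48 hours, with cells grown in 96-well plates and compounds tested at five concentrations. GI50: concentration for 50% inhibition of growth. The concentration for full growth arrest is given as TGI.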
# Legend:
# Assay in all cases: DTP human tumour cell line panel, 48 h
# NCI-H460 lung = system: NCI-H460 lung
# OVCAR-3 ovarian = system: OVCAR-3 ovarian
# NCI-H226 lung = system: NCI-H226 lung
# SK-MEL-5 melanoma = system: SK-MEL-5 melanoma
# LOX IMVI melanoma = system: LOX IMVI melanoma
# HS 578T breast = system: HS 578T breast
# UACC-62 melanoma = system: UACC-62 melanoma
# HOP-92 NSCLC = system: HOP-92 NSCLC
# HL-60(TB) leukemia = system: HL-60(TB) leukemia
# CAKI-1 renal = system: CAKI-1 renal
# SR leukemia = system: SR leukemia
# RPMI-8226 leukemia = system: RPMI-8226 leukemia
# MALME-3M melanoma = system: MALME-3M melanoma
# COLO 205 colon = system: COLO 205 colon
# UO-31 renal = system: UO-31 renal
# SNB-75 CNS = system: SNB-75 CNS
# EKVX NSCLC = system: EKVX NSCLC
# A498 renal = system: A498 renal
# SF-268 CNS = system: SF-268 CNS
# SK-MEL-2 melanoma = system: SK-MEL-2 melanoma
# NCI/ADR-RES ovarian = system: NCI/ADR-RES ovarian
# MOLT-4 leukemia = system: MOLT-4 leukemia
# DU-145 prostate = system: DU-145 prostate
# 786-0 renal = system: 786-0 renal
# OVCAR-4 ovarian = system: OVCAR-4 ovarian
# NCI-H522 lung = system: NCI-H522 lung
# OVCAR-5 ovarian = system: OVCAR-5 ovarian
# HCT-116 colon = system: HCT-116 colon
# RXF 393 renal = system: RXF 393 renal
# SNB-19 CNS = system: SNB-19 CNS
# UACC-257 melanoma = system: UACC-257 melanoma
# IGROV1 ovarian = system: IGROV1 ovarian
# K-562 leukemia = system: K-562 leukemia
# MDA-N = system: MDA-N
# SK-OV-3 ovarian = system: SK-OV-3 ovarian
# ACHN renal = system: ACHN renal
# SN12C renal = system: SN12C renal
# HOP-62 NSCLC = system: HOP-62 NSCLC
# BT-549 breast = system: BT-549 breast
# T-47D breast = system: T-47D breast
# MDA-MB-231 breast = system: MDA-MB-231 breast
# MCF7 breast = system: MCF7 breast
# KM12 colon = system: KM12 colon
# SW-620 colon = system: SW-620 colon
# HT29 colon = system: HT29 colon
# OVCAR-8 ovarian = system: OVCAR-8 ovarian
# U251 CNS = system: U251 CNS
# MDA-MB-435 = system: MDA-MB-435
# M14 melanoma = system: M14 melanoma
# SF-295 CNS = system: SF-295 CNS
# PC-3 prostate = system: PC-3 prostate
# HCT-15 colon = system: HCT-15 colon
# SF-539 CNS = system: SF-539 CNS
# SK-MEL-28 melanoma = system: SK-MEL-28 melanoma
# TK-10 renal = system: TK-10 renal
# A549 NSCLC = system: A549 NSCLC
# CCRF-CEM leukemia = system: CCRF-CEM leukemia
# HCC-2998 colon = system: HCC-2998 colon
# NCI-H23 lung = system: NCI-H23 lung
smiles,measurement,setting,value
O=C(O)CN1C(=O)CN=C(c2ccccn2)c2cc(Cl)ccc21,TGI,NCI-H460 lung,> 100 µM
same,TGI,OVCAR-3 ovarian,> 100 µM
same,TGI,NCI-H226 lung,> 100 µM
same,TGI,SK-MEL-5 melanoma,> 100 µM
same,TGI,LOX IMVI melanoma,> 100 µM
same,TGI,HS 578T breast,> 100 µM
same,TGI,UACC-62 melanoma,> 100 µM
same,TGI,HOP-92 NSCLC,> 100 µM
same,TGI,HL-60(TB) leukemia,22.9 µM
same,TGI,CAKI-1 renal,> 100 µM
same,TGI,SR leukemia,> 100 µM
same,TGI,RPMI-8226 leukemia,> 100 µM
same,TGI,MALME-3M melanoma,> 100 µM
same,TGI,COLO 205 colon,> 100 µM
same,TGI,UO-31 renal,> 100 µM
same,TGI,SNB-75 CNS,> 100 µM
same,TGI,EKVX NSCLC,> 100 µM
same,TGI,A498 renal,> 100 µM
same,TGI,SF-268 CNS,> 100 µM
same,TGI,SK-MEL-2 melanoma,> 100 µM
same,TGI,NCI/ADR-RES ovarian,> 100 µM
same,TGI,MOLT-4 leukemia,21.7 µM
same,TGI,DU-145 prostate,> 100 µM
same,TGI,786-0 renal,> 100 µM
same,TGI,OVCAR-4 ovarian,> 100 µM
same,TGI,NCI-H522 lung,> 100 µM
same,TGI,OVCAR-5 ovarian,> 100 µM
same,TGI,HCT-116 colon,> 100 µM
same,TGI,RXF 393 renal,> 100 µM
same,TGI,SNB-19 CNS,> 100 µM
same,TGI,UACC-257 melanoma,> 100 µM
same,TGI,IGROV1 ovarian,> 100 µM
same,TGI,K-562 leukemia,> 100 µM
same,TGI,MDA-N,> 100 µM
same,TGI,SK-OV-3 ovarian,> 100 µM
same,TGI,ACHN renal,> 100 µM
same,TGI,SN12C renal,> 100 µM
same,TGI,HOP-62 NSCLC,> 100 µM
same,TGI,BT-549 breast,> 100 µM
same,TGI,T-47D breast,> 100 µM
same,TGI,MDA-MB-231 breast,> 100 µM
same,TGI,MCF7 breast,> 100 µM
same,TGI,KM12 colon,> 100 µM
same,TGI,SW-620 colon,> 100 µM
same,TGI,HT29 colon,> 100 µM
same,TGI,OVCAR-8 ovarian,> 100 µM
same,TGI,U251 CNS,> 100 µM
same,TGI,MDA-MB-435,> 100 µM
same,TGI,M14 melanoma,> 100 µM
same,TGI,SF-295 CNS,> 100 µM
same,TGI,PC-3 prostate,> 100 µM
same,TGI,HCT-15 colon,> 100 µM
same,TGI,SF-539 CNS,> 100 µM
same,TGI,SK-MEL-28 melanoma,> 100 µM
same,TGI,TK-10 renal,> 100 µM
same,TGI,A549 NSCLC,> 100 µM
FC(F)(F)c1cc(NC(=S)N2c3ccccc3-n3cccc3C2c2cccnc2)cc(C(F)(F)F)c1 (stereo not given),GI50,NCI-H460 lung,10.5 µM
same,TGI,NCI-H460 lung,23.4 µM
same,GI50,OVCAR-3 ovarian,3.01 µM
same,TGI,OVCAR-3 ovarian,9.47 µM
same,GI50,NCI-H226 lung,22.7 µM
same,TGI,NCI-H226 lung,54.7 µM
same,GI50,SK-MEL-5 melanoma,11.6 µM
same,TGI,SK-MEL-5 melanoma,23.9 µM
same,GI50,HS 578T breast,12.5 µM
same,TGI,HS 578T breast,40.6 µM
same,GI50,UACC-62 melanoma,11.7 µM
same,TGI,UACC-62 melanoma,24.4 µM
same,GI50,HOP-92 NSCLC,2.93 µM
same,TGI,HOP-92 NSCLC,7.87 µM
same,GI50,HL-60(TB) leukemia,3.87 µM
same,TGI,HL-60(TB) leukemia,21.4 µM
same,GI50,CAKI-1 renal,5.36 µM
same,TGI,CAKI-1 renal,21.7 µM
same,GI50,SR leukemia,4.64 µM
same,TGI,SR leukemia,22.7 µM
same,GI50,RPMI-8226 leukemia,3.84 µM
same,TGI,RPMI-8226 leukemia,18.7 µM
same,TGI,MALME-3M melanoma,26.9 µM
same,GI50,COLO 205 colon,9.07 µM
same,TGI,COLO 205 colon,21.6 µM
same,GI50,UO-31 renal,19.9 µM
same,TGI,UO-31 renal,36.9 µM
same,GI50,SNB-75 CNS,7.07 µM
same,TGI,SNB-75 CNS,22.7 µM
same,GI50,EKVX NSCLC,9.67 µM
same,TGI,EKVX NSCLC,37.8 µM
same,GI50,A498 renal,13.7 µM
same,TGI,A498 renal,30.3 µM
same,GI50,SF-268 CNS,9.91 µM
same,TGI,SF-268 CNS,28.5 µM
same,GI50,SK-MEL-2 melanoma,12.7 µM
same,TGI,SK-MEL-2 melanoma,31.6 µM
same,GI50,NCI/ADR-RES ovarian,4.18 µM
same,TGI,NCI/ADR-RES ovarian,18.2 µM
same,GI50,MOLT-4 leukemia,3.96 µM
same,TGI,MOLT-4 leukemia,20.2 µM
same,GI50,DU-145 prostate,10.6 µM
same,TGI,DU-145 prostate,24.3 µM
same,GI50,786-0 renal,5.31 µM
same,TGI,786-0 renal,18.7 µM
same,GI50,OVCAR-4 ovarian,6.24 µM
same,TGI,OVCAR-4 ovarian,23.8 µM
same,GI50,NCI-H522 lung,3.68 µM
same,TGI,NCI-H522 lung,13.7 µM
same,GI50,OVCAR-5 ovarian,22 µM
same,TGI,OVCAR-5 ovarian,59.2 µM
same,GI50,HCT-116 colon,12.4 µM
same,TGI,HCT-116 colon,40.3 µM
same,GI50,RXF 393 renal,11 µM
same,TGI,RXF 393 renal,35.8 µM
same,GI50,SNB-19 CNS,7.55 µM
same,TGI,SNB-19 CNS,29.9 µM
same,GI50,UACC-257 melanoma,3.9 µM
same,TGI,UACC-257 melanoma,15.7 µM
same,GI50,CCRF-CEM leukemia,4.1 µM
same,TGI,CCRF-CEM leukemia,33.7 µM
same,GI50,IGROV1 ovarian,8.76 µM
same,TGI,IGROV1 ovarian,22.9 µM
same,GI50,K-562 leukemia,3.58 µM
same,TGI,K-562 leukemia,19.3 µM
same,GI50,MDA-N,11.6 µM
same,TGI,MDA-N,32.5 µM
same,GI50,SK-OV-3 ovarian,11.9 µM
same,TGI,SK-OV-3 ovarian,27.5 µM
same,GI50,ACHN renal,7.11 µM
same,TGI,ACHN renal,62 µM
same,GI50,SN12C renal,12.1 µM
same,TGI,SN12C renal,35.9 µM
same,GI50,HOP-62 NSCLC,7.23 µM
same,TGI,HOP-62 NSCLC,21.7 µM
same,GI50,BT-549 breast,8.96 µM
same,TGI,BT-549 breast,45.7 µM
same,GI50,T-47D breast,3.89 µM
same,TGI,T-47D breast,26.2 µM
same,GI50,MDA-MB-231 breast,8.39 µM
same,TGI,MDA-MB-231 breast,31.1 µM
same,GI50,MCF7 breast,12.9 µM
same,TGI,MCF7 breast,32 µM
same,GI50,KM12 colon,8.9 µM
same,TGI,KM12 colon,32 µM
same,GI50,SW-620 colon,4.31 µM
same,TGI,SW-620 colon,19.6 µM
same,GI50,HT29 colon,12.5 µM
same,TGI,HT29 colon,34.5 µM
same,GI50,OVCAR-8 ovarian,4.65 µM
same,TGI,OVCAR-8 ovarian,15.3 µM
same,GI50,HCC-2998 colon,5.1 µM
same,TGI,HCC-2998 colon,19 µM
same,GI50,U251 CNS,4.2 µM
same,TGI,U251 CNS,14.8 µM
same,GI50,MDA-MB-435,6.57 µM
same,TGI,MDA-MB-435,22.1 µM
same,GI50,M14 melanoma,11.3 µM
same,TGI,M14 melanoma,28.2 µM
same,GI50,SF-295 CNS,5.52 µM
same,TGI,SF-295 CNS,21.1 µM
same,TGI,PC-3 prostate,16.7 µM
same,GI50,NCI-H23 lung,7.01 µM
same,TGI,NCI-H23 lung,20.6 µM
same,GI50,HCT-15 colon,4.76 µM
same,TGI,HCT-15 colon,27.7 µM
same,GI50,SF-539 CNS,14.7 µM
same,TGI,SF-539 CNS,37.4 µM
same,GI50,SK-MEL-28 melanoma,15.7 µM
same,TGI,SK-MEL-28 melanoma,37.1 µM
same,GI50,TK-10 renal,2.9 µM
same,TGI,TK-10 renal,9.39 µM
same,GI50,A549 NSCLC,9.25 µM
same,TGI,A549 NSCLC,26.8 µM
